{
  "source": "patent US20240287136A1",
  "about": "“PHARMACEUTICAL COMPOSITION AND THE USE THEREOF IN THE TREATMENT OF AUTOIMMUNE DISEASES” (Singapore Health Services Pte. Ltd., priority 2016, published 2024)",
  "key": {"[1]": {"tested_on": "PBMCs", "assay": "TaqMan gene expression of regulatory molecules in PBMCs incubated in vitro with SEQ ID NO. 1", "assay_type": "cell-based, human", "conditions": "T0 PBMCs incubated with 10 mg/ml SEQ ID NO. 1 for 48 hours", "protocol": "PBMCs from T0 were incubated in vitro with 10 mg/ml SEQ ID NO. 1 for 48 hours, and TaqMan was performed as described earlier. Data are expressed as 2(−dCT)×100 of GAPDH. PD-1, 0.3595+/−0.1033 vs 0.9310+/−0.1961, n=S, p0.0327 PD-L1, 0.1400+/−0.05308 vs 1.080+/−0.1926, n=6, p0.0005 CTLA-4, 0.2667+/−0.07313 vs 4.809+/−2.606, n=6, p0.0588 Foxp3, 0.2678+/−0.1267 vs 2.329+/−0.9527, n=6, p0.0422 P values were obtained by t-test."}, "[2]": {"tested_on": "regulatory T cell (Treg) (CD4+CD25++CD127−)", "assay": "Treg frequency in PBMC of trial patients by FACS", "assay_type": "in vivo, human", "protocol": "FIG. 3. Effector and regulatory T cell function differ according to clinical response: a. effector T cells (Teff) (CD4+CD127+) at beginning of the trial (TO) and end of the study (Tend) were compared for PD-1 expression in both SEQ ID NO. 1 clinical responders and placebo clinical non-responders by FACS. b. FACS-sorted Teffwere analyzed for IL-17 and for RORC. Teff were stained intracellularly with IL-17A, and analyzed by FACS. c. regulatory T cell (Treg) (CD4+CD25++CD127−) frequency (% of PBMC) was determined in SEQ ID NO. 1—treated clinical responders by FACS. […] Values are the mean and s.e.m. d. Treg functionality in SEQ ID NO. […] (placebo clinical non-responders vs SEQ ID NO. 1 clinical responders, —76.21+/−3.665 vs 8.443+/−4.677, n=2 vs 3, t-test p0.0010). Values are the mean and s.e.m.\nIt is not detected in clinical responders a change in frequency of CD4+/CD25++/CD127-Treg between beginning and end of the trial (FIG. 3c). A highly significant difference between treatment responders and placebo non-responders was found in the suppressive ability of Treg at the end of the trial (FIG. 3d). This difference indicates a restoration of Treg functionality in clinical responders to treatment with SEQ ID NO. 1 (FIG. 3d and Sa).\nSuccessful treatment with SEQ ID NO: 1 therefore induced an immune deviation of Teff cells by reducing their ability to produce pro-inflammatory cytokines. […]"}, "[3]": {"tested_on": "PD-1+Treg and PD-1− Treg", "assay": "TaqMan RNA expression in sorted total, PD-1+ and PD-1− Treg of clinical responders", "assay_type": "in vivo, human", "conditions": "SEQ ID NO. 1 clinical responders at Tend", "protocol": "(§1) FIG. 5. PD-1 actively contributes to Treg function: a. Treg ability to suppress Teff proliferation was determined by CFSE dilution. A representative clinical responder is depicted. Treg cells were sorted by FACS according to the phenotype depicted in the table and incubated with Teff in the presence of 10 mg/ml of SEQ ID NO. 1. b. […] 1. c. […] 1. Line with white area under the curve depicts T0, grey area depicts Tend. T(x)=Probability binning. % PD-1+Treg is expressed as percentage of the total Treg population (insets in both panels). d. […] PD-1+Treg cells were stained by FACS after a 5-day incubation with Teff and APC in the presence or absence of anti-PD1 antibody. Details in methods. Line with white area under the curve depicts anti-PD1 treated, grey area depicts untreated. T(x)=Probability binning. e. pSTAT5 was examined in Treg via immunofluorescent microscopy. Cells, staining and slides were prepared according to procedures outlined in the methods. The average pSTAT5 expression per cell for anti-PD-1 treatment, as determined by the average integral density per unit area, was calculated using ImageJ (Rasband, W. S., ImageJ, http://rsb.info.nih.gov/ij/, 1997-2009). Untreated vs. anti-PD-1 treated: 38.79 vs. 33.07, standard deviation 4.27 vs. […], t-test p<0.0001. f. […] Teff were stained by FACS after a 5-day incubation in the presence or absence of anti-PD1 antibody. Details in methods. Line with white area under the curve depicts anti-PD1 treated, grey area depicts untreated. T(x)=Probability binning. g. Total Treg, PD-1+Treg and PD-1− Treg from clinical responders (n=S) at Tend were sorted and RNA expression of CTLA-4, FoxP3, IL-10 and TGF-β was measured by TaqMan. Data are expressed as 2(−dCT)×100 of GAPDH. […] 1 clinical responders (18.99+/−3.412 vs 2.693+/−1.434, n=S p=0.0130).\nTo further characterize function of PD-1+Treg, mRNA was extracted from FACS-sorted CD4+/CD25++/CD127−total Treg, PD-1+Treg and PD-1-Treg and tested by qPCR for expression of various genes associated with Treg function."}, "[4]": {"assay_type": "in vitro ADME", "conditions": "without a linker; data not shown", "excerpt": "This is synthetically of less interest to a person skilled in the art since it usually involves multiple-step synthesis for making the peptide. In the presence of the linker, the peptide SEQ ID No: 1 and the antirheumatic drug can be administered in equal proportion because the linker protects the peptide from degradation and thus enhance the stability of the peptide."}, "[5]": {"tested_on": "Treg (CD4+CD25++CD127−) cells", "assay": "PD-1 expression on Treg by FACS after incubation with SEQ ID NO. 1", "assay_type": "cell-based, human", "conditions": "after incubation with 10 mg/ml of SEQ ID NO. 1", "protocol": "as §1"}, "[6]": {"tested_on": "latent TGFβ binding protein 4 (LTBP-4) gene", "assay": "Gene array analysis of PBMCs of trial patients", "assay_type": "in vivo, human", "conditions": "SEQ ID NO: 1 responders (FIG. 14A)"}, "[7]": {"tested_on": "CD4+FoxP3+Tregs and CD4+CD45RO+memory T cells", "assay": "Cluster analysis and manual gating of Treg and memory T cell compartments of trial patients", "assay_type": "in vivo, human", "excerpt": "Cluster analysis of the immune profiles of healthy individuals and rheumatoid arthritis patients reveal profound perturbations in the various immune cell compartments (FIG. 8). Immune tolerization achieved with SEQ ID NO: 1 treatment reshapes the immunomes of rheumatoid patients (FIG. 8B). The underlying immunological mechanisms behind immune tolerization was investigated by utilising staining panels for surface and activation markers on T cells (FIG. 13).\nImmune phenotypes enriched in this cell subset of SEQ ID NO: 1 responders were memory T cells displaying activation and tolerogenic characteristics (FIG. 11B)."}, "[8]": {"conditions": "placebo clinical non-responders"}},
  "note": "Ends that are not written are not given here.",
  "data": [
    {"substance": "QKRAAYDQYGHAAFE-NH2 [SEQ ID NO. 1]", "values": [
      {"measurement": "CTLA-4 gene expression in PBMCs", "setting": "[1]; clinical responders", "result": "4.809+/−2.606 2(−dCT)×100 of GAPDH"},
      {"measurement": "Foxp3 gene expression in PBMCs", "setting": "[1]; clinical responders", "result": "2.329+/−0.9527 2(−dCT)×100 of GAPDH"},
      {"measurement": "PD-1 gene expression in PBMCs", "setting": "[1]; clinical responders", "result": "0.9310+/−0.1961 2(−dCT)×100 of GAPDH"},
      {"measurement": "PD-L1 gene expression in PBMCs", "setting": "[1]; clinical responders", "result": "1.080+/−0.1926 2(−dCT)×100 of GAPDH"},
      {"measurement": "CTLA-4 gene expression in PBMCs", "setting": "[1]; [8]", "result": "0.2667+/−0.07313 2(−dCT)×100 of GAPDH"},
      {"measurement": "Foxp3 gene expression in PBMCs", "setting": "[1]; [8]", "result": "0.2678+/−0.1267 2(−dCT)×100 of GAPDH"},
      {"measurement": "PD-1 gene expression in PBMCs", "setting": "[1]; [8]", "result": "0.3595+/−0.1033 2(−dCT)×100 of GAPDH"},
      {"measurement": "PD-L1 gene expression in PBMCs", "setting": "[1]; [8]", "result": "0.1400+/−0.05308 2(−dCT)×100 of GAPDH"},
      {"measurement": "change of frequency of Tregs between beginning and end of the trial", "setting": "[2]; FIG. 9B", "result": "did not change"},
      {"measurement": "Treg frequency in PBMC", "setting": "[2]; clinical responders, Tend, T0 7.773+/−1.432, n=4, mean and s.e.m.", "result": "7.610+/−1.519 % of PBMC"},
      {"measurement": "CTLA-4, FoxP3 and IL-10 expression between the different subsets of Treg", "setting": "[3]", "result": "did not differ"},
      {"measurement": "TGF-β gene expression in PD-1+Treg", "setting": "[3]", "result": "18.99+/−3.412 2(−dCT)×100 of GAPDH"},
      {"measurement": "TGF-β gene expression in PD-1− Treg", "setting": "[3]", "result": "2.693+/−1.434 2(−dCT)×100 of GAPDH"},
      {"measurement": "stability of the peptide upon ingestion", "setting": "[4]", "result": "prone to degradation upon ingestion"},
      {"measurement": "PD-1+ Treg as percentage of total Treg", "setting": "[5]; clinical responder, T0", "result": 13.3, "unit": "%"},
      {"measurement": "PD-1+ Treg as percentage of total Treg", "setting": "[5]; clinical responder, Tend", "result": 41, "unit": "%"},
      {"measurement": "PD-1+ Treg as percentage of total Treg", "setting": "[5]; representative clinical non-responder, T0", "result": 15.5, "unit": "%"},
      {"measurement": "PD-1+ Treg as percentage of total Treg", "setting": "[5]; representative clinical non-responder, Tend", "result": 12.7, "unit": "%"},
      {"measurement": "expression of latent TGFβ binding protein 4 (LTBP-4) gene in PBMCs", "setting": "[6]", "result": "marginal upregulation"},
      {"measurement": "percentage of CD4+FoxP3+Tregs expressing GITR, PD-1 and HLA-DR", "setting": "[7]; SEQ ID NO: 1 responders versus placebo non-responders (FIG. 8E)", "result": "higher percentage"},
      {"measurement": "proportion of CD4+CD45RO+memory T cells activated and regulatory (CD69 and TGFβ expression)", "setting": "[7]; SEQ ID NO: 1 responders versus placebo non-responders (FIG. 11C)", "result": "larger proportion"}
    ]}
  ]
}
